Data on 23 molecules can be found in US10570129B2 (Zoetis Services LLC, priority 2015, dated 2020).

Assay [1] has as its system Haemonchus contortus L3. The assay is described as follows: microbe, parasite or virus in culture. In kind it is cell-based. Particulars: Haemonchus contortus, 96 h, read-out: HcL3 Minimal Effective Concentration (MEC).
The subject of assay [2] is D. immitis microfilariae. Kind of assay: Dirofilaria immitis, microfilariae (DiMF) in vitro motility assay. The class given is cell-based. Particulars: Dirofilaria immitis, 72 h, read-out: DiMF minimally effective dose (MEC).

Regarding `O=C(NCc1ccnc(Cl)c1)n1c2c(c3cc(F)c(Cl)cc31)CN(C/C=C/c1cc(F)c(F)c(F)c1)CC2` [Example 301, (E)-7-chloro-N-((2-chloropyridin-4-yl)methyl)-8-fluoro-2-(3-(3,4,5-trifluorophenyl)allyl)-1,2,3,4-tetrahydro-5H-pyrido[4,3-b]indole-5-carboxamide], the minimal effective concentration in assay [1] was 0.2 µM; in assay [2], 18.2 µM.

Regarding `O=C(NCc1ccnc(Cl)c1)n1c2c(c3ccc(Cl)cc31)CN(C/C=C/c1ccc(C(F)(F)F)cn1)CC2` [Example 206, (E)-7-chloro-N-((2-chloropyridin-4-yl)methyl)-2-(3-(5-(trifluoromethyl)-pyridin-2-yl)allyl)-1,2,3,4-tetrahydro-5H-pyrido[4,3-b]indole-5-carboxamide], the minimal effective concentration in assay [1] turned out to be 0.2 µM; in assay [2] it was 3.3 µM.

`O=C(NCc1ccnc(F)c1)n1c2c(c3cc(Cl)ccc31)CN(C/C=C/c1ccc(F)c(Cl)c1)CC2` [Example 258, (E)-8-chloro-2-(3-(3-chloro-4-fluorophenyl)allyl)-N-((2-fluoropyridin-4-yl)methyl)-1,2,3,4-tetrahydro-5H-pyrido[4,3-b]indole-5-carboxamide]: the minimal effective concentration in assay [1] was determined as 10 µM; in assay [2] it was 100 µM.

`N#Cc1ccc(/C=C/CN2CCc3c(c4cc(OC(F)(F)F)ccc4n3C(=O)NCc3ccnc(Cl)c3)C2)cc1F` [Example 386, (E)-N-((2-chloropyridin-4-yl)methyl)-2-(3-(4-cyano-3-fluorophenyl)allyl)-8-(trifluoromethoxy)-1,2,3,4-tetrahydro-5H-pyrido[4,3-b]indole-5-carboxamide]: the minimal effective concentration is 0.2 µM in assay [1] and 3.3 µM in assay [2].

On to `O=C(NCc1ccnc(Cl)c1)n1c2c(c3ccc(OC(F)(F)F)cc31)CN(C/C=C/c1ccc(Br)cc1F)CC2` [Example 338, (E)-2-(3-(4-bromo-2-fluorophenyl)allyl)-N-((2-chloropyridin-4-yl)methyl)-7-(trifluoromethoxy)-1,2,3,4-tetrahydro-5H-pyrido[4,3-b]indole-5-carboxamide], for which the values for the minimal effective concentration in assay [1] and in assay [2] were 0.3 µM and 10 µM, respectively.

On to `O=C(NCc1ccnc(Cl)c1)n1c2c(c3cc(Br)c(C(F)(F)F)cc31)CN(C/C=C/c1ccc(Cl)cc1)CC2` [Example 498, (E)-8-bromo-2-(3-(4-chlorophenyl)allyl)-N-((2-chloropyridin-4-yl)methyl)-7-(trifluoromethyl)-1,2,3,4-tetrahydro-5H-pyrido[4,3-b]indole-5-carboxamide], for which the minimal effective concentration amounted to 1.8 µM in assay [1] and 5.7 µM in assay [2].

With `N#Cc1ccc(/C=C/CN2CCc3c(c4ccc(OC(F)(F)F)cc4n3C(=O)NCc3ccnc(Cl)c3)C2)cc1` [Example 351, (E)-N-((2-chloropyridin-4-yl)methyl)-2-(3-(4-cyanophenyl)allyl)-7-(trifluoromethoxy)-1,2,3,4-tetrahydro-5H-pyrido[4,3-b]indole-5-carboxamide], the minimal effective concentration in assay [1] was found to be 0.7 µM; in assay [2], 32.3 µM.

With `O=C(NCc1ccnc(F)c1)n1c2c(c3cc(OC(F)(F)F)ccc31)CN(C/C=C/c1ccc(F)cc1F)CC2` [Example 403, (E)-2-(3-(2,4-difluorophenyl)allyl)-N-((2-fluoropyridin-4-yl)methyl)-8-(trifluoromethoxy)-1,2,3,4-tetrahydro-5H-pyrido[4,3-b]indole-5-carboxamide], the minimal effective concentration in assay [1] is 0.3 µM; in assay [2] it was 18.2 µM.

Regarding `N#Cc1ccc2c(c1)c1c(n2C(=O)NCc2ccnc(F)c2)CCN(C/C=C/c2ccc(Br)c(F)c2F)C1` [Example 111, (E)-2-(3-(4-bromo-2,3-difluorophenyl)allyl)-8-cyano-N-((2-fluoropyridin-4-yl)methyl)-1,2,3,4-tetrahydro-5H-pyrido[4,3-b]indole-5-carboxamide], the minimal effective concentration was 0.3 µM in assay [1] and greater than 100 µM in assay [2].

`O=C(NCc1ccnc(F)c1)n1c2c(c3c(Cl)c(Cl)ccc31)CN(C/C=C/c1ccc(Cl)cc1)CC2` [Example 293, (E)-8,9-dichloro-2-(3-(4-chlorophenyl)allyl)-N-((2-fluoropyridin-4-yl)methyl)-1,2,3,4-tetrahydro-5H-pyrido[4,3-b]indole-5-carboxamide]: the minimal effective concentration in assay [1] is 3.3 µM; in assay [2], 5.7 µM.

Take `N#Cc1cc2c(cc1F)c1c(n2C(=O)NCc2ccnc(Cl)c2)CCN(C/C=C/c2ccc(Cl)c(F)c2)C1` [Example 172, (E)-2-(3-(4-chloro-3-fluorophenyl)allyl)-N-((2-chloropyridin-4-yl)methyl)-7-cyano-8-fluoro-1,2,3,4-tetrahydro-5H-pyrido[4,3-b]indole-5-carboxamide]: the results for the minimal effective concentration in assay [1] and in assay [2] were 10 µM and greater than 100 µM, respectively.

Take `O=C(NCc1ccnc(Cl)c1)n1c2c(c3ccc(N4CCOCC4)cc31)CN(C/C=C/c1ccc(Cl)c(Cl)c1)CC2` [Example 508, (E)-N-((2-chloropyridin-4-yl)methyl)-2-(3-(3,4-dichlorophenyl)allyl)-7-morpholino-1,2,3,4-tetrahydro-5H-pyrido[4,3-b]indole-5-carboxamide]: the minimal effective concentration in assay [1] stood at 1.6 µM; in assay [2], 9 µM.

Regarding `O=C(NCc1cnc(Cl)s1)n1c2c(c3cccc(Cl)c31)CN(C/C=C/c1ccc(Cl)cc1)CC2` [Example 273, (E)-6-chloro-2-(3-(4-chlorophenyl)allyl)-N-((2-chlorothiazol-5-yl)methyl)-1,2,3,4-tetrahydro-5H-pyrido[4,3-b]indole-5-carboxamide], the minimal effective concentration is greater than 100 µM in assay [1] and 18.2 µM in assay [2].

`N#Cc1ccc(/C=C/CN2CCc3c(c4cc(F)ccc4n3C(=O)NCc3ccnc(Cl)c3)C2)cc1` [Example 168, (E)-N-((2-chloropyridin-4-yl)methyl)-2-(3-(4-cyanophenyl)allyl)-8-fluoro-1,2,3,4-tetrahydro-5H-pyrido[4,3-b]indole-5-carboxamide]: the minimal effective concentration in assay [1] was 0.5 µM; in assay [2] it was 10 µM.

Consider `O=C(NCc1ccnc(F)c1)n1c2c(c3ccc(OC(F)(F)F)cc31)CN(C/C=C/c1ccc(Cl)c(F)c1)CC2` [Example 369, (E)-2-(3-(4-chloro-3-fluorophenyl)allyl)-N-((2-fluoropyridin-4-yl)methyl)-7-(trifluoromethoxy)-1,2,3,4-tetrahydro-5H-pyrido[4,3-b]indole-5-carboxamide], for which the minimal effective concentration in assay [1] came to 1 µM; in assay [2], 10 µM.

As to `N#Cc1ccc2c3c(n(C(=O)NCc4ccnc(Cl)c4)c2c1)CCN(C/C=C/c1ccc(Br)cc1F)C3` [Example 5, (E)-2-(3-(4-bromo-2-fluorophenyl)allyl)-N-((2-chloropyridin-4-yl)methyl)-7-cyano-1,2,3,4-tetrahydro-5H-pyrido[4,3-b]indole-5-carboxamide], the minimal effective concentration is 1 µM in assay [1] and 5.7 µM in assay [2].

With `N#Cc1ccc2c3c(n(C(=O)NCc4ccnc(Cl)c4)c2c1)CCN(C/C=C/c1cccc(Cl)c1F)C3` [Example 31, (E)-2-(3-(3-chloro-2-fluorophenyl)allyl)-N-((2-chloropyridin-4-yl)methyl)-7-cyano-1,2,3,4-tetrahydro-5H-pyrido[4,3-b]indole-5-carboxamide], the results for the minimal effective concentration in assay [1] and in assay [2] were 1 µM and greater than 100 µM, respectively.

Take `O=C(NCc1ccnc(Cl)c1)n1c2c(c3ccc(OC(F)(F)F)cc31)CN(C/C=C/c1ccc(F)cc1F)CC2` [Example 347, (E)-N-((2-chloropyridin-4-yl)methyl)-2-(3-(2,4-difluorophenyl)allyl)-7-(trifluoromethoxy)-1,2,3,4-tetrahydro-5H-pyrido[4,3-b]indole-5-carboxamide]: the minimal effective concentration in assay [1] and in assay [2] was 2.4 µM throughout.

For `N#Cc1ccc(/C=C/CN2CCc3c(c4ccc(Br)cc4n3C(=O)NCc3ccnc(Cl)c3)C2)cc1` [Example 441, (E)-7-bromo-N-((2-chloropyridin-4-yl)methyl)-2-(3-(4-cyanophenyl)allyl)-1,2,3,4-tetrahydro-5H-pyrido[4,3-b]indole-5-carboxamide], the minimal effective concentration in assay [1] was greater than 100 µM; in assay [2] it was 4.4 µM.

`N#Cc1ccc2c3c(n(C(=O)NCc4ccnc(F)c4)c2c1)CCN(C/C=C/c1ccc(Cl)c(F)c1)C3` [Example 51, (E)-2-(3-(4-chloro-3-fluorophenyl)allyl)-7-cyano-N-((2-fluoropyridin-4-yl)methyl)-1,2,3,4-tetrahydro-5H-pyrido[4,3-b]indole-5-carboxamide]: the figures for the minimal effective concentration in assay [1] and in assay [2] were 3.3 µM and 5.7 µM, respectively.

With `O=C(NCc1ccnc(Cl)c1)n1c2c(c3cc(OC(F)(F)F)ccc31)CN(C/C=C/c1ccc(C(F)(F)F)cn1)CC2` [Example 385, (E)-N-((2-chloropyridin-4-yl)methyl)-8-(trifluoromethoxy)-2-(3-(5-(trifluoromethyl)pyridin-2-yl)allyl)-1,2,3,4-tetrahydro-5H-pyrido[4,3-b]indole-5-carboxamide], the figures for the minimal effective concentration in assay [1] and in assay [2] were 0.5 µM and 47.8 µM, respectively.

In the case of `N#Cc1ccc2c(c1)c1c(n2C(=O)NCc2ccnc(Cl)c2)CCN(C/C=C/c2ccc(Cl)c(F)c2)C1` [Example 72, (E)-2-(3-(4-chloro-3-fluorophenyl)allyl)-N-((2-chloropyridin-4-yl)methyl)-8-cyano-1,2,3,4-tetrahydro-5H-pyrido[4,3-b]indole-5-carboxamide], the minimal effective concentration in assay [1] was found to be 0.2 µM; in assay [2], 5.1 µM.

Regarding `O=C(NCc1ccnc(F)c1)n1c2c(c3cc(-c4ccc(Cl)cc4)ccc31)CN(C/C=C/c1ccc(Cl)cc1)CC2` [Example 461, (E)-8-(4-chlorophenyl)-2-(3-(4-chlorophenyl)allyl)-N-((2-fluoropyridin-4-yl)methyl)-1,2,3,4-tetrahydro-5H-pyrido[4,3-b]indole-5-carboxamide], the minimal effective concentration in assay [1] was 33 µM; in assay [2], greater than 100 µM.
